As a reminder, the Ki is the equilibrium dissociation constant of an inhibitor or competing ligand from its target.

The target in one assay is T1, human glucocorticoid receptor-α [GRX] isoform (Homo sapiens, UniProt P04150).
T1 construct: purchased Ligand Pharmaceuticals (San Diego, CA); host or cells: insect SF21 cells (baculovirus)
T1 sequence (P04150 1-777): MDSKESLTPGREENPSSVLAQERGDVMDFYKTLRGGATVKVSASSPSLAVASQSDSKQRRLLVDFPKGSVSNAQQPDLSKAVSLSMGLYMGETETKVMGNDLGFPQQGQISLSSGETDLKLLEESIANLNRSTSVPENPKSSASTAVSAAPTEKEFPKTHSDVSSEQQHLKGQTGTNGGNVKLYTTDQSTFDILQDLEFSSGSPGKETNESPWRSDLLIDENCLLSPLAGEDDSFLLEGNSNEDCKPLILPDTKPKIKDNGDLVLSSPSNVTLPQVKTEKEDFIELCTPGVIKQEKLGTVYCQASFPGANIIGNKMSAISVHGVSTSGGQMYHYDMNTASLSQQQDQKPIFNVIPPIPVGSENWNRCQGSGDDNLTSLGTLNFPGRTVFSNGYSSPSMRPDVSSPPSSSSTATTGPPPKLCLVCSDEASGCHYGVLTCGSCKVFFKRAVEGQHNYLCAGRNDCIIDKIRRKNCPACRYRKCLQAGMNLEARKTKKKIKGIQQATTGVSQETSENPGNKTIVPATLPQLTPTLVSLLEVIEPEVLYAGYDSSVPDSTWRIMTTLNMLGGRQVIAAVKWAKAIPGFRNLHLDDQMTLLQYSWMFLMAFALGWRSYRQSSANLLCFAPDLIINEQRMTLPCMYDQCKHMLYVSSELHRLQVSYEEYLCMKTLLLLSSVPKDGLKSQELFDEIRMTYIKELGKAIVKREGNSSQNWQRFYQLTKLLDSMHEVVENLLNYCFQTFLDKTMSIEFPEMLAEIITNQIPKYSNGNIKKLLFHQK
The assay can be described thus: glucocorticoid receptor (GR) cytosol binding assay, [3H]-dexamethasone competition.
Settings: not given
From the text:
For glucocorticoid receptor (OR) cytosol binding assays, the procedure described in Anal. […] Briefly, cytosol preparations of human glucocorticoid receptor-α [GRX] isoform and human progesterone receptor-A [PRA] isoform were obtained from Ligand Pharmaceuticals (San Diego, CA). Both receptor cDNAs were cloned into baculovirus expression vectors and expressed in insect SF21 cells. […] Glass fiber type C multiscreen MAFC NOB plates were from Millipore ( Burlington, MA). Hydroxyapatide Bio-Gel HTP gel was obtained from Bio-Rad Laboratories (Hercules. CA). Tris(hydroxymethyl)aminomethane (Tris), ethylenediaminetetraacetic acid (EDTA), glycerol, dithiothreitol (DTT) and sodium moylybdate were obtained from Sigma Chemicals (St. Louis, MO). Microscint-20 scintillation fluid was obtained from Packard Instrument (Meriden, CT). […] GRX and PRA binding reactions were performed in Millipore Multiscreen plates. […] Specific binding was defined as the difference between binding of [^3H]Dex in the absence and in the presence of 1µM unlabeled Dex. After an overnight incubation, 50 µL of hydroxyapatite (25 % weight/volume) slurry were added to each well and plates were incubated for 10 min at 4 °C in a plate shaker. Plates were suctioned with a Millipore vacuum manifold and each well was rinsed with 300 µL of ice-cold binding buffer. A 250 µL aliquot of Packard Microscint-20 was added to each well and the wells were shaken at room temperature for 20 minutes. The amount of radioactivity was determined with a Packard TopCount plate reader.
Compound `CN(C)c1ccc(C(c2ccc(N(C)C)cc2)c2cc(Cl)ccc2Cl)cc1` [Example 24, 4',4" bis(dimethylamino)-2,5-dichlorotriphenylmethane] returned a Ki of 306 nM. Same read-out and setting: the value for `CNc1ccc(C(c2ccc(N(C)C)cc2)c2cc([N+](=O)[O-])ccc2Cl)cc1` (stereo not shown) [Example 39, 4'-dimethylamino-4"-methylamino-2-chloro-5-nitrotriphenylmethane] was 127 nM; that for `CN(C)c1ccc(C(c2ccc(N(C)CCO)cc2)c2cc([N+](=O)[O-])ccc2Cl)cc1` (stereo not shown) [Example 42, 4'-dimethylamino-4"-(N-methyl-N-(2-hydroxyethyl)amino)-2-chloro-5-nitrotriphenylmethane] was 109 nM. Still for that read-out and setting: with `CC(=O)OCCN(C)c1ccc(C(c2ccc(N(C)C)cc2)c2cc([N+](=O)[O-])ccc2Cl)cc1` (stereo not shown) [Example 51, 4'-dimethylamino-4"-(N-methyl-N-(2-acetoxyethyl)amino)-2-chloro-5-nitrotriphenylmethane] the figure was 167 nM.

The same assay, now with this note: [3H]-Dex ~0.9 nM, GRX cytosol, 4 °C overnight; Cheng-Prusoff; read-out: Ki (nM) GR.
With `CN(C)c1ccc(C(c2ccc(N(C)C)cc2)c2cc([N+](=O)[O-])ccc2Cl)cc1` [Example 1, 4',4" bis(dimethylamino)-2-chloro-5-nitrotriphenylmethane], the Ki was determined as 272 nM.

On to `CNc1ccc(C(c2ccc(NC)cc2)c2cc([N+](=O)[O-])ccc2Cl)cc1` [Example 23, 4',4" bis(methylamino)-2-chloro-5-nitrotriphenylmethane], for which the Ki turned out to be 60 nM. The same measure, in the same setting: the value for `CNc1ccc(C(c2ccc(NC)cc2)c2cc(Cl)ccc2Cl)cc1` [Example 27, 4',4" bis(methylamino)-2,5-dichlorotriphenylmethane] was 71 nM. For `CC(=O)OCCN(C)c1ccc(C(c2ccc(N(C)CCOC(C)=O)cc2)c2cc([N+](=O)[O-])ccc2Cl)cc1` [Example 31, 4',4" bis(N-(2-acetoxyethyl) N-methylamino)-2-chloro-5-nitrotriphenylmethane], the Ki was 145 nM.

Turning to `CN(CCO)c1ccc(C(c2ccc(N(C)CCO)cc2)c2cc([N+](=O)[O-])ccc2Cl)cc1` [Example 32, 4',4" bis(N-(2-hydroxyethyl) N-methylamino)-2-chloro-5-nitrotriphenylmethane], the Ki came out at 136 nM. On the same count and under the same terms, with `O=[N+]([O-])c1ccc(Cl)c(C(c2ccc(NCc3ccccc3)cc2)c2ccc(NCc3ccccc3)cc2)c1` [Example 36, 4',4" bis(N-benzylamino)-2-chloro-5-nitrotriphenylmethane] the figure was 38 nM. The same measure, in the same setting: with `CNc1ccc(C(c2ccc(N(C)CCOC(C)=O)cc2)c2cc([N+](=O)[O-])ccc2Cl)cc1` (stereo not shown) [Example 49, 4'-methylamino-4"-(N-(2-acetoxyethyl)-N-methylamino)-2-chloro-5-nitrotriphenylmethane] the figure was 135 nM; with `CN(C)c1ccc(C(Oc2ccccc2)c2cc([N+](=O)[O-])ccc2Cl)cc1` (stereo not shown) [Example 52, phenyl-[(4'-dimethylaminophenyl)-(2-chloro-5-nitrophenyl)methyl] ether], 733 nM.

Take `CN(C)c1ccc(C(Sc2ccccc2)c2cc([N+](=O)[O-])ccc2Cl)cc1` (stereo not shown) [Example 54, phenyl-[(4'-dimethylaminophenyl)-(2-chloro-5-nitrophenyl)methyl]thioether]: the Ki came to 227 nM.

The values are drawn from patent publication EP1100483B1, “GLUCOCORTICOID-SELECTIVE ANTI-INFLAMMATORY AGENTS” (Abbott Laboratories, priority 1998, dated 2000).
